# Results reported in patent publication US5912259A, “Method for treating and preventing neurodegenerative disorders by administering a thiazolidinone” (Warner-Lambert Company, priority 1998, dated 1999).
# How the values were obtained:
# [1] = system: inducible nitric oxide synthase (iNOS), BV-2 microglia; assay: Nitric oxide production in LPS-activated BV-2 microglia (Griess reaction); type: cell-based; settings: Mus musculus, LPS 4 μg/mL, 16 hours, read-out: IC50, inhibition of nitric oxide production
# Description: (§1) BV-2 microglia were grown in 6-well tissue culture plates in DMEM/F12 media supplemented with 10% fetal calf serum. Prior to activation, cells were given fresh media containing various amounts of thiazolidinone. One hour after drug treatment, microglia were activated with lipopolysaccharide (LPS, 4 μg/mL) and placed in an incubator at 37° C. in an atmosphere containing 5% CO2. After 16 hours, cultures were evaluated for inducible nitric oxide synthase (iNOS) activity and expression. iNOS activity was determined using the Griess reaction. Cell-free culture media was mixed with an equal volume of Griess reagent (one volume of 1.0% sulfanilamide in 5% phosphoric acid mixed with one volume of 0.1% naphthylenediamine dihydrochloride in water) and incubated for 5 minutes at room temperature. Absorbance was measured at 560 nm and the concentration within a sample was determined using sodium nitrite as standard. iNOS expression was evaluated by extracting cellular protein and performing Western blot analysis using a monoclonal antibody specific for iNOS.
# iNOS, BV-2 microglia = assay: iNOS expression in LPS-activated BV-2 microglia (Western blot); type: cell-based
# Description: as §1
# [2] = system: nitric oxide synthase, mixed cortical cultures; assay: Nitric oxide synthase activity / NO production in mixed cortical cultures; type: cell-based, fetal Sprague-Dawley rat
# Description: as §1
# Experiments using mixed cortical cultures were performed as described above. […]
# Cerebral ischemia can be modeled in vitro by lowering oxygen and glucose in the media of cortical neurons. […] Cultures were read every 2 to 3 days thereafter by half volume (100 μL) replacement with DME/F12 (10% horse serum).
# ICAM-1 = assay: Cell-surface expression of ICAM-1; type: cell-based
# E-selectin = assay: Cell-surface expression of E-selectin; type: cell-based
# [3] = system: canine leptomeningeal smooth muscle cells; assay: Amyloid β-peptide-induced cytotoxicity in canine leptomeningeal smooth muscle cells; type: cell-based, dog
# Text: Canine smooth muscle cells were isolated from freshly obtained old dog meninges. […] Old dogs have an angiopathy resembling the human condition. Smooth muscle cells are the site of cerebral vessel myopathy occurring in the Dutch form of Alzheimer's disease. The compromise of these cells ultimately leads to a cerebrovascular accident and the death of some humans.
# Cells from the meninges were dissociated and kept in culture in 10% fetal calf serum and Dulbecco's minimal essential media with antibiotics for about 1 week on tissue culture plates before use in biochemical studies or transferal to uncoated microscope slides for morphological studies. These smooth muscle cells represent brain blood vessel cells and they can be passaged several times. For inducing cytotoxicity, the cells were treated, in serum-free media, with 10 to 20 μM of amyloid β-peptide that was 42 amino acids long. This peptide corresponds to the human β-peptide sequence. The peptide was dissolved in water immediately before use. This small amount of protein is believed to approximate the concentration of protein observed in postmortem samples in the brains of people who died with Alzheimer's dementia.
# Percentages were determined by counting normal and apoptotic nuclei in three fields with five independent measures in a fluorescence microscope.
# [4] = Toxicology studies in dogs; type: in vivo, dog
# Description: (§2) As noted above, the thiazolidinone is additionally well-suited to treating elderly patients because of its long duration of action and its substantial lack of undesirable side effects. Toxicologic properties of the thiazolidinone were evaluated in single-dose oral and intravenous (IV) studies in mice and rats and multidose oral studies in rats and dogs. The thiazolidinone was tested in dogs and monkeys in escalating-dose oral toxicity to determine the most sensitive nonrodent species. […] The initial 13-week dog study was repeated to evaluate the reproducibility of the perivascular effects. Dose range-finding studies were performed in pregnant rats and rabbits, and genotoxic potential was assessed in vitro and in vivo. […] Based on exposure at the no-effect dose in definitive studies, the rat appears to be the most sensitive species followed by the dog and the monkey, albeit with minor differences in exposure between the species.
# [5] = 13-week toxicity study in monkeys; type: in vivo, monkey
# Description: as §2
compound,measurement,setting,value
"CC(C)(C)c1cc(/C=C2\SC(N)=NC2=O)cc(C(C)(C)C)c1O [CI-1004, (Z)-5-[[3,5-bis(1,1-dimethylethyl)-4-hydroxyphenyl]methylene]-2-imino-4-thiazolidinone methanesulfonate]",IC50,[1],2400 nM
same,iNOS protein expression,"iNOS, BV-2 microglia",decrease in protein expression
same,increase in nitric oxide synthase activity on LPS activation,"[2]; 10 μM, LPS-activated",prevented the increase in nitric oxide synthase activity
same,basal NO production,[2]; non-LPS activated cultures,significant decrease in basal NO production
same,cell-surface expression of ICAM-1,ICAM-1,blocks
same,cell-surface expression of E-selectin,E-selectin,blocks
same,amyloid accumulation over the cells,[3],amyloid accumulation over the cells was reduced
same,cell death induced by amyloid,[3]; 20-30 μM in 5% DMSO/water v/v,significantly decrease the cell death induced by the amyloid
same,hepatic enzyme induction,[4],hepatic enzyme induction which was not associated with overt organ toxicity
same,gastrointestinal effects,[4]; definitive 13-week studies,gastrointestinal effects
same,perivascular mononuclear infiltrates in brain,[4]; initial 13-week study,perivascular mononuclear infiltrates in brain were observed
same,ileo-cecal erosions,"[5]; 13-week study, not attributed to drug",Superficial ileo-cecal erosions identified microscopically were observed
same,NSAID-related changes,[5]; 13 weeks,No typical NSAID-related changes were observed
